The record followed here is patent US20230242551A1, “ISOTOPE-SUBSTITUTED SPIRO AROMATIC RING COMPOUND AND APPLICATION THEREOF” (ETERN BIOPHARMA (SHANGHAI) CO., LTD., priority 2020, published 2023).

The structures appear in SMILES notation.

Data set [1] in a line: Liver microsomal metabolic stability test (rat). The data set is classed as in vitro ADME. As to conditions: NADPH, 37° C. As to the method:
(§1) 1) Preparation of stock and working solutions of the compound: An appropriate amount of the compound was weighed and dissolved in DMSO to give a 10 mM stock solution, and the stock solution was further diluted with ACN to give a 100 µM working solution.
(§2) 73.21 g of dipotassium hydrogen phosphate trihydrate and 10.78 g of potassium dihydrogen phosphate were dissolved in 4000 mL of ultrapure water. The pH of the solution was adjusted to 7.40 ± 0.10 with 10% phosphoric acid or 1 M potassium hydroxide and the final concentration was 100 mM.
(§3) NADPH was weighed and dissolved in the phosphate buffer solution to obtain a 10 mM solution.
(§4) 445 µL of human/rat liver microsomal working solution (MWS) was added to the incubation sample plate, pre-incubated at 37° C. for 10 min, and then fully mixed after the addition of 5 µL of working solution of positive control or the compound to be tested.
(§5) 54 µL of the above intermediate working solution was transferred to the zero-time sample plate (T0), then added with 180 µL of ACN solution containing 200 ng/mL tolubutamide and labetalol (internal standard) to precipitate the protein, and finally added with 6 µL of NADPH working solution.
(§6) 44 µL of NADPH working solution was added to 396 µL of microsomal working solution containing positive control or the compound to be tested (remaining solution after the operation of steps (1) and (2)) and incubated at 37° C. At the time points of 5, 15, 30, 45, and 60 min, 60 uL of incubation solution was taken and added to 180 µL of ACN solution containing 200 ng/mL of tolubutamide and labetalol (internal standard) to precipitate the protein.
(§7) Centrifuged collected supernatants were analyzed with LC-MS/MS after appropriate dilution.
(§8) The peak area ratio of the analyte to the internal standard was used to calculate the relative percentage content of the compound after incubation and to perform exponential function fitting. The calculation formula was as follows: […]
(§9) wherein k was the rate constant obtained by linear regression taking the concentration logarithm as the ordinate and the incubation time as the absciss.
(§10) wherein CLint was the Intrinsic clearance.
On the technique in general: Liver microsomes are a subcellular fraction often used to study metabolism.

Data set [2] can be described thus: Liver microsomal metabolic stability test (human). In kind it is in vitro ADME. As to conditions: NADPH, 37° C.; for half-life at 1 µM / microsomal CLint at 1 µM: pH 7.4; for half-life at 1 µM: read-out: Human hepatic microsomal metabolic half-life; for microsomal CLint at 1 µM: read-out: Intrinsic clearance of human hepatic microsomes in body. As to the method:
as §1
Each positive control standard was dissolved separately with DMSO to obtain a 10 mM stock solution and further diluted with ACN to obtain a 100 µM working solution.
as §2
Human liver microsomes (20 mg/mL) were diluted with the phosphate buffer solution to obtain 0.56 mg/mL of a liver microsomal working solution.
as §3
1) Preparation of Blank: 54 µL of human liver microsomal working solution was transferred to a blank sample plate, then added with 6 µL of NADPH working solution, and finally added with 180 µL of ACN solution containing 200 ng/mL of tolbutamide and labetalol (internal standard) to precipitate the protein.
445 µL of human liver microsomal working solution (MWS) was added to the cofactor-free incubation sample plate, pre-incubated at 37° C. for 10 min, and then fully mixed after the addition of 5 µL of working solution of positive control or the compound to be tested.
50 µL of phosphate buffer solution was added to the above incubation sample plate, fully mixed and incubated at 37° C. for 60 min.
After the incubation is complete, 60 µL of incubation solution was taken into a pellet plate, and then added with 180 µL of ACN solution containing 200 ng/mL of tolbutamide and labetalol (internal standard) to precipitate the protein.
as §4, §5, §6, §7, §8, §9, §10

The mark [3] stands for this setting: human liver microsomes, 0-60 min.

Consider `Nc1nccc(Sc2cnc(N3CCC4(CC3)Cc3ncccc3[C@H]4N)n3ccnc23)c1Cl` [Compound 1], for which the “Intrinsic clearance of rat hepatic microsomes in body” value in data set [1] is 19 µL/min/mg. For the same molecule, the “Rat hepatic microsomal metabolic half-life” value in data set [1] (rat liver microsomes, 0-60 min) was determined as 1.17 h. Further, the “Intrinsic clearance of human hepatic microsomes in body” value in data set [2] is on record as 26 µL/min/mg. Moreover, the “Human hepatic microsomal metabolic half-life” value in data set [2] (setting [3]) was found to be 0.9 h.
Broadly, the half-life is the time in which the quantity being followed falls by half. Regarding `[2H][C@@]1(N)c2cccnc2CC12CCN(c1ncc(Sc3ccnc(N)c3Cl)c3nccn13)CC2` [Compound 10], the half-life at 1 µM in data set [1] (pH 7.4, rat liver microsomes, 0-60 min, read-out: Rat hepatic microsomal metabolic half-life) came out at 2.03 h; in data set [2] (setting [3]) it was 1.2 h. For the same molecule, the microsomal CLint at 1 µM in data set [1] (pH 7.4, rat liver microsomes, read-out: Intrinsic clearance of rat hepatic microsomes in body) worked out at 11.4 µL/min/mg; in data set [2] (human liver microsomes) it was 19 µL/min/mg.
Consider `[2H]C1([2H])c2ncccc2[C@@]([2H])(N)C12CCN(c1ncc(Sc3ccnc(N)c3Cl)c3nccn13)CC2` [Compound 12], for which, in data set [2] (setting [3]), the half-life at 1 µM was 1.28 h. Further, in data set [2] (human liver microsomes), the microsomal CLint at 1 µM came to 18 µL/min/mg.
